Patent publication US11857519B2, “Compounds and methods for the targeted degradation of enhancer of zeste homolog 2 polypeptide” (Arvinas Operations, Inc., priority 2016, dated 2024)

Biological target: T1, EZH2 (Homo sapiens, UniProt Q15910)
T1 construct: Protocol of the Cellular Assay of Target Protein Degradation (VCaP Cells, ELISA); endogenous in cells; host or cells: VCaP cells
Assay: Cellular assay of target protein degradation (VCaP cells, ELISA)
Assay type: cell-based
Conditions: 4 hours, protein degradation range at indicated concentration (relative to DMSO control)
Experimental: Protocol of the Cellular Assay of Target Protein Degradation (VCaP Cells, ELISA).
For detection Cell Signaling PathScan Sandwich ELISA Catalog #12850 Lot 11 was used. VCaP cells were cultured in ATCC DMEM+ATCC FBS and plated 40,000/well 100 μl/well in RPMI P/S with 5% CSS Omega (bovine) serum into a 96 well plate. The cells were grown for a minimum of 3 days, dosed with compounds in 0.1% DMSO (diluted with 5% CSS) and incubated with aspiration for 4 hours. 100 μl of 1× Cell Signaling lysis buffer #9803 (36 mL dH2O+4 mL Cell Signaling lysis buffer) was added. The incubation was placed on cold room shaker for 10 minutes at speed 8-9. 5 μl to 100 μL of Diluent was transferred to ELISA plate (0.15 μg/mL−0.075 μg/mL) and stored at 4° C. overnight on cold room shaker speed 5 (gentle swirl) and then shaken next morning at 37° C. for 30 minutes. The preparation was washed 4×200 μl with ELISA wash buffer and aspirated with eight-channel aspirator. 100 μl/well of target protein detection antibody was added after, which the preparation was covered and shaken at 37° C. for 1 hour. 100 μl TMB was added, and the mixture was shaken for 5 min while under observation. When TMB turned light blue, 100 μl of Stop solution was added, and the mixture was shaken and read at 450 nm. Also read at 562 nm for background subtraction.

T1 sequence (Q15910 whole entry): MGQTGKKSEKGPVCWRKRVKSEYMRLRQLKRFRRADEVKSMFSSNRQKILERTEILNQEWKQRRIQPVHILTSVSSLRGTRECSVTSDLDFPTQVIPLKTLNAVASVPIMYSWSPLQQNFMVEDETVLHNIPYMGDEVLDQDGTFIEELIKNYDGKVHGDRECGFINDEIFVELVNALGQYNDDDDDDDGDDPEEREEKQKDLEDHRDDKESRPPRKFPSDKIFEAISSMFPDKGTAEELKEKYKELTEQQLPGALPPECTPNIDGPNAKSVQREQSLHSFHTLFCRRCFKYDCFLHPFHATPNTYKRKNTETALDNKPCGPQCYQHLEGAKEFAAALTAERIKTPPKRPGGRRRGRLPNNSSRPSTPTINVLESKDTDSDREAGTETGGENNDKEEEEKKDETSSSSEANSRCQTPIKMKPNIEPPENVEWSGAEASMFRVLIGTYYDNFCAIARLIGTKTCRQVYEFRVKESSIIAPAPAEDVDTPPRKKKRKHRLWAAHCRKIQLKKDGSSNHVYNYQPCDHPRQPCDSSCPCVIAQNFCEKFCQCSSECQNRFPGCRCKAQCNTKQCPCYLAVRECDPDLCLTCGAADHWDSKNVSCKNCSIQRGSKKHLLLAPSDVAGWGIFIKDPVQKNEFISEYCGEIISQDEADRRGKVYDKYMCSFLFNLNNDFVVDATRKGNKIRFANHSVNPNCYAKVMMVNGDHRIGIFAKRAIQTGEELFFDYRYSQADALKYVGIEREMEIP
T1 sequence (O75530 whole entry partner): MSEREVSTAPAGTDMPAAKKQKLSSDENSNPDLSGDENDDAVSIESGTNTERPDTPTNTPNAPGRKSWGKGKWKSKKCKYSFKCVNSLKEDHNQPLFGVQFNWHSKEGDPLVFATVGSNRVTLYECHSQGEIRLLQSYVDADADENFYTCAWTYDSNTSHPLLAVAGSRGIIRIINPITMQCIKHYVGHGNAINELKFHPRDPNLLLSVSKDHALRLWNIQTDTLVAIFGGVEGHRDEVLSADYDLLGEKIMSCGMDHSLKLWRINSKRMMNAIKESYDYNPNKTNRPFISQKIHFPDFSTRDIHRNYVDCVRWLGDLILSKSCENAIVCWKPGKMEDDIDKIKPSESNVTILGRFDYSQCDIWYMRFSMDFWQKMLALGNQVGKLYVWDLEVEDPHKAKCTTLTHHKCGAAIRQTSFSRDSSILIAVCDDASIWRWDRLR
T1 sequence (Q15022 whole entry partner): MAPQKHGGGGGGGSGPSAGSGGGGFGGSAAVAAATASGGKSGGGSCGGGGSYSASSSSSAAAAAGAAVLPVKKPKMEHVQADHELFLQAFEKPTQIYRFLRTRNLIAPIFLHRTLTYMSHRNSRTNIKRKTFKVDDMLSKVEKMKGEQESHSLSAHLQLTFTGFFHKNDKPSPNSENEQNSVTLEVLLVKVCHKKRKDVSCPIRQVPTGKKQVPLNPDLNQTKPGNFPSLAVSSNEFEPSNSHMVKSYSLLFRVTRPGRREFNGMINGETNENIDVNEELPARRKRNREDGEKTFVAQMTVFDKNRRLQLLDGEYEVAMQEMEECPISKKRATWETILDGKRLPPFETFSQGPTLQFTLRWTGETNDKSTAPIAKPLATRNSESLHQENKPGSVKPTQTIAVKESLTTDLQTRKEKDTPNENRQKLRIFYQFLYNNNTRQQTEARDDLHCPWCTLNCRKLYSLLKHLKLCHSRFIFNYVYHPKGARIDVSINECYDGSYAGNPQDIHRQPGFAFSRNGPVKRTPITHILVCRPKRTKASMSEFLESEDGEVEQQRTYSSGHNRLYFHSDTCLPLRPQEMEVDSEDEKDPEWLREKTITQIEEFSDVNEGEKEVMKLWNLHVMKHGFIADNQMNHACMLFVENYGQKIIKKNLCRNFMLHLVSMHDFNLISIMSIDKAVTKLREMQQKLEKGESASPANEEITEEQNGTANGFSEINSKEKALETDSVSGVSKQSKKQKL

## Cc1cc(C)c(CNC(=O)c2c(C)n(C(C)C3CCN(C(=O)COCCOCCOCCOCCOCCNc4cccc5c4C(=O)N(C4CCC(=O)NC4=O)C5=O)CC3)c3ccccc23)c(=O)[nH]1 (stereo not shown) [Compound 12, N-[(4,6-dimethyl-2-oxo-1,2-dihydropyridin-3-yl)methyl]-1-[1-(1-{1-[2-(2,6-dioxopiperidin-3-yl)-1,3-dioxo-2,3-dihydro-1H-isoindol-4-yl]-4,7,10,13,16-pentaoxa-1-azaoctadecanoyl}piperidin-4-yl)ethyl]-2-methyl-1H-indole-3-carboxamide]
  percent target protein degradation class: B (B = degradation between 30% and 60%)

## CCN(c1cc(-c2ccc(OCCOCCOCCOCC(=O)N[C@H](C(=O)N3C[C@H](O)C[C@H]3C(=O)NCc3ccc(-c4scnc4C)cc3)C(C)(C)C)cc2)cc(C(=O)NCc2c(C)cc(C)[nH]c2=O)c1C)C1CCOCC1 [Compound 13, (2S,4R)-1-[(2S)-2-{1-[4-(3-{[(4,6-dimethyl-2-oxo-1,2-dihydropyridin-3-yl)methyl]carbamoyl}-5-[ethyl(oxan-4-yl)amino]-4-methylphenyl)phenyl]-1,4,7,10-tetraoxadodecan-12-amido}-3,3-dimethylbutanoyl]-4-hydroxy-N-{[4-(4-methyl-1,3-thiazol-5-yl)phenyl]methyl}pyrrolidine-2-carboxamide]
  percent target protein degradation class: B (B = degradation between 30% and 60%)

## CCN(c1cc(-c2ccc(OCCOCCOCCOCCOCCOCC(=O)N[C@H](C(=O)N3C[C@H](O)C[C@H]3C(=O)NCc3ccc(-c4scnc4C)cc3)C(C)(C)C)cc2)cc(C(=O)NCc2c(C)cc(C)[nH]c2=O)c1C)C1CCOCC1 [Compound 15, (2S,4R)-1-[(2S)-2-{1-[4-(3-{[(4,6-dimethyl-2-oxo-1,2-dihydropyridin-3-yl)methyl]carbamoyl}-5-[ethyl(oxan-4-yl)amino]-4-methylphenyl)phenyl]-1,4,7,10,13,16-hexaoxaoctadecan-18-amido}-3,3-dimethylbutanoyl]-4-hydroxy-N-{[4-(4-methyl-1,3-thiazol-5-yl)phenyl]methyl}pyrrolidine-2-carboxamide]
  percent target protein degradation class: B (B = degradation between 30% and 60%)

## CCN(c1cc(-c2ccc(OCCOCCOCCOCCOCCOCCOCC(=O)N[C@H](C(=O)N3C[C@H](O)C[C@H]3C(=O)NCc3ccc(-c4scnc4C)cc3)C(C)(C)C)cc2)cc(C(=O)NCc2c(C)cc(C)[nH]c2=O)c1C)C1CCOCC1 [Compound 16, (2S,4R)-1-[(2S)-2-{1-[4-(3-{[(4,6-dimethyl-2-oxo-1,2-dihydropyridin-3-yl)methyl]carbamoyl}-5-[ethyl(oxan-4-yl)amino]-4-methylphenyl)phenyl]-1,4,7,10,13,16,19-heptaoxahenicosan-21-amido}-3,3-dimethylbutanoyl]-4-hydroxy-N-{[4-(4-methyl-1,3-thiazol-5-yl)phenyl]methyl}pyrrolidine-2-carboxamide]
  percent target protein degradation class: B (B = degradation between 30% and 60%)

## CCN(c1cc(-c2ccc(OCCOCCOCCOCCNc3cccc4c3C(=O)N(C3CCC(=O)NC3=O)C4=O)cc2)cc(C(=O)NCc2c(C)cc(C)[nH]c2=O)c1C)C1CCOCC1 (stereo not shown) [Compound 17, N-[(4,6-dimethyl-2-oxo-1,2-dihydropyridin-3-yl)methyl]-5-[4-({1-[2-(2,6-dioxopiperidin-3-yl)-1,3-dioxo-2,3-dihydro-1H-isoindol-4-yl]-4,7,10-trioxa-1-azadodecan-12-yl}oxy)phenyl]-3-[ethyl(oxan-4-yl)amino]-2-methylbenzamide]
  percent target protein degradation class: B (B = degradation between 30% and 60%)

## CCN(c1cc(-c2ccc(OCCOCCOCCOCCOCCNc3cccc4c3C(=O)N(C3CCC(=O)NC3=O)C4=O)cc2)cc(C(=O)NCc2c(C)cc(C)[nH]c2=O)c1C)C1CCOCC1 (stereo not shown) [Compound 18, N-[(4,6-dimethyl-2-oxo-1,2-dihydropyridin-3-yl)methyl]-5-[4-({1-[2-(2,6-dioxopiperidin-3-yl)-1,3-dioxo-2,3-dihydro-1H-isoindol-4-yl]-4,7,10,13-tetraoxa-1-azapentadecan-15-yl}oxy)phenyl]-3-[ethyl(oxan-4-yl)amino]-2-methylbenzamide]
  percent target protein degradation class: B (B = degradation between 30% and 60%)

## CCN(c1cc(-c2ccc(OCCOCCOCCOCCOCCOCCNc3cccc4c3C(=O)N(C3CCC(=O)NC3=O)C4=O)cc2)cc(C(=O)NCc2c(C)cc(C)[nH]c2=O)c1C)C1CCOCC1 (stereo not shown) [Compound 19, N-[(4,6-dimethyl-2-oxo-1,2-dihydropyridin-3-yl)methyl]-5-[4-({1-[2-(2,6-dioxopiperidin-3-yl)-1,3-dioxo-2,3-dihydro-1H-isoindol-4-yl]-4,7,10,13,16-pentaoxa-1-azaoctadecan-18-yl}oxy)phenyl]-3-[ethyl(oxan-4-yl)amino]-2-methylbenzamide]
  percent target protein degradation class: B (B = degradation between 30% and 60%)

## CCN(c1cc(-c2ccc(OCCOCCOCCOCCOCCOCCOCCNc3cccc4c3C(=O)N(C3CCC(=O)NC3=O)C4=O)cc2)cc(C(=O)NCc2c(C)cc(C)[nH]c2=O)c1C)C1CCOCC1 (stereo not shown) [Compound 20, N-[(4,6-dimethyl-2-oxo-1,2-dihydropyridin-3-yl)methyl]-5-[4-({1-[2-(2,6-dioxopiperidin-3-yl)-1,3-dioxo-2,3-dihydro-1H-isoindol-4-yl]-4,7,10,13,16,19-hexaoxa-1-azahenicosan-21-yl}oxy)phenyl]-3-[ethyl(oxan-4-yl)amino]-2-methylbenzamide]
  percent target protein degradation class: B (B = degradation between 30% and 60%)

## CCN(c1cc(-c2cccc(OCCOCCOCCOCCOCCOCCNc3cccc4c3C(=O)N(C3CCC(=O)NC3=O)C4=O)c2)cc(C(=O)NCc2c(C)cc(C)[nH]c2=O)c1C)C1CCOCC1 (stereo not shown) [Compound 21, N-[(4,6-dimethyl-2-oxo-1,2-dihydropyridin-3-yl)methyl]-5-[3-({1-[2-(2,6-dioxopiperidin-3-yl)-1,3-dioxo-2,3-dihydro-1H-isoindol-4-yl]-4,7,10,13,16-pentaoxa-1-azaoctadecan-18-yl}oxy)phenyl]-3-[ethyl(oxan-4-yl)amino]-2-methylbenzamide]
  percent target protein degradation class: B (B = degradation between 30% and 60%)

## CCN(c1cc(-c2ccc(OCCOCCOCCOCCOCCOCCOCCOCCNc3cccc4c3C(=O)N(C3CCC(=O)NC3=O)C4=O)cc2)cc(C(=O)NCc2c(C)cc(C)[nH]c2=O)c1C)C1CCOCC1 (stereo not shown) [Compound 22, N-[(4,6-dimethyl-2-oxo-1,2-dihydropyridin-3-yl)methyl]-5-[4-({1-[2-(2,6-dioxopiperidin-3-yl)-1,3-dioxo-2,3-dihydro-1H-isoindol-4-yl]-4,7,10,13,16,19,22-heptaoxa-1-azatetracosan-24-yl}oxy)phenyl]-3-[ethyl(oxan-4-yl)amino]-2-methylbenzamide]
  percent target protein degradation class: B (B = degradation between 30% and 60%)

## CCN(c1cc(-c2ccc(OCCOCCOCCOCCOCCOCCOCCOCCOCCNc3cccc4c3C(=O)N(C3CCC(=O)NC3=O)C4=O)cc2)cc(C(=O)NCc2c(C)cc(C)[nH]c2=O)c1C)C1CCOCC1 (stereo not drawn) [Compound 23, N-[(4,6-dimethyl-2-oxo-1,2-dihydropyridin-3-yl)methyl]-5-[4-({l-[2-(2,6-dioxopiperidin-3-yl)-1,3-dioxo-2,3-dihydro-1H-isoindol-4-yl]-4,7,10,13,16,19,22,25-octaoxa-1-azaheptacosan-27-yl}oxy)phenyl]-3-[ethyl(oxan-4-yl)amino]-2-methylbenzamide]
  percent target protein degradation class: B (B = degradation between 30% and 60%)

## CCN(c1cc(-c2ccccc2OCCOCCOCCOCCOCCOCCNc2cccc3c2C(=O)N(C2CCC(=O)NC2=O)C3=O)cc(C(=O)NCc2c(C)cc(C)[nH]c2=O)c1C)C1CCOCC1 (stereo not shown) [Compound 25, N-[(4,6-dimethyl-2-oxo-1,2-dihydropyridin-3-yl)methyl]-5-[2-({1-[2-(2,6-dioxopiperidin-3-yl)-1,3-dioxo-2,3-dihydro-1H-isoindol-4-yl]-4,7,10,13,16-pentaoxa-1-azaoctadecan-18-yl}oxy)phenyl]-3-[ethyl(oxan-4-yl)amino]-2-methylbenzamide]
  percent target protein degradation class: B (B = degradation between 30% and 60%)

## CCN(c1cc(-c2ccc(OCCOCCOCCOc3ccc(-c4csc([C@@H]5CCCN5C(=O)[C@@H](NC(=O)[C@H](C)NC)C5CCCCC5)n4)c4ccccc34)cc2)cc(C(=O)NCc2c(C)cc(C)[nH]c2=O)c1C)C1CCOCC1 [Compound 28, 5-{4-[2-(2-{2-[(4-{2-[(2S)-1-[(2S)-2-cyclohexyl-2-[(2S)-2-(methylamino)propanamido]acetyl]pyrrolidin-2-yl]-1,3-thiazol-4-yl}naphthalen-1-yl)oxy]ethoxy}ethoxy)ethoxy]phenyl}-N-[(4,6-dimethyl-2-oxo-1,2-dihydropyridin-3-yl)methyl]-3-[ethyl(oxan-4-yl)amino]-2-methylbenzamide]
  percent target protein degradation class: B (B = degradation between 30% and 60%)
